The record followed here is patent publication US10183015B2, “Heterocyclic compounds and methods of use” (Medivation Technologies LLC, priority 2015, dated 2019).

The first assay deals with HepG2 cells. Nature of the assay: HepG2 cell viability under serum-free conditions (MTS). The format is cell-based. The settings on record: Homo sapiens, HepG2, 72 h; 5 μM, 3 days, DMEM without FBS; read-out: Average Viability (% Inhibition, n = 3). How it is done: Cancer cells such as HepG2 cells depend on SREBP activation and de novo lipogenesis to survive, particularly in low serum or serum-free conditions. Using this model, compounds were screened over 24 hours for the ability to block cleavage of SREBP to its active form and over 72 hours for an effect on cell viability under serum-free conditions.
For viability measurements, HepG2 cells were seeded at 5,000 cells per well in 96-well plates in DMEM supplemented with 10% FBS. After 1 day in culture, cells were treated with compounds (20 μM & 5 μM) for 3 days in DMEM without FBS. Viability was measured by MTS […]. […]
`O=S(=O)(Nc1ccc(-c2csc(-c3csc4ccccc34)n2)c(Cl)c1)C(F)(F)F` [Compound 90, N-{4-[2-(1-benzothiophen-3-yl)-1,3-thiazol-4-yl]-3-chlorophenyl}-1,1,1-trifluoromethanesulfonamide]: the cytotoxicity at 5 µM came out at 99%.

`O=S(=O)(Nc1ccc(-c2csc(-c3cccc(N4CCCCC4)c3)n2)c(Cl)c1)C(F)(F)F` [Compound 88, N-(3-chloro-4-{2-[3-(piperidin-1-yl)phenyl]-1,3-thiazol-4-yl}phenyl)-1,1,1-trifluoromethanesulfonamide]: the cytotoxicity at 5 µM stood at 19%.

For the compound `O=S(=O)(Nc1ccc(-c2csc(-c3ccccc3-c3ccccc3)n2)c(Cl)c1)C(F)(F)F` [Compound 74, N-{3-chloro-4-[2-(2-phenylphenyl)-1,3-thiazol-4-yl]phenyl}-1,1,1-trifluoromethanesulfonamide], the cytotoxicity at 5 µM stood at 97%.

For `O=S(=O)(Nc1ccc(-c2csc(-c3c[nH]c4ccccc34)n2)c(Cl)c1)C(F)(F)F` [Compound 93, N-{3-chloro-4-[2-(1H-indol-3-yl)-1,3-thiazol-4-yl]phenyl}-1,1,1-trifluoromethanesulfonamide], the cytotoxicity at 5 µM was found to be 82%.

For the compound `Cc1noc(C)c1-c1nc(-c2ccc(NS(=O)(=O)C(F)(F)F)cc2Cl)cs1` [Compound 77, N-{3-chloro-4-[2-(dimethyl-1,2-oxazol-4-yl)-1,3-thiazol-4-yl]phenyl}-1,1,1-trifluoromethanesulfonamide], the cytotoxicity at 5 µM came to 41%.

Turning to `Cc1ccc(S(=O)(=O)Nc2cccc(-c3nc(-c4ccc(NS(=O)(=O)C(F)(F)F)cc4Cl)cs3)c2)cc1` [Compound 78, N-{3-[4-(2-chloro-4-trifluoromethanesulfonamidophenyl)-1,3-thiazol-2-yl]phenyl}-4-methylbenzene-1-sulfonamide], the cytotoxicity at 5 µM came to 87%.

For `O=S(=O)(Nc1ccc(-c2csc(-c3ccc(F)cc3C(F)(F)F)n2)c(Cl)c1)C(F)(F)F` [Compound 81, N-[3-chloro-4-[2-[4-fluoro-2-(trifluoromethyl)phenyl]thiazol-4-yl]phenyl]-1,1,1-trifluoro-methanesulfonamide], the cytotoxicity at 5 µM came to 88%.

As for `O=S(=O)(Nc1ccc(-c2csc(-c3ccc(C(F)(F)F)c(OCc4ccccc4)c3)n2)c(Cl)c1)C(F)(F)F` [Compound 73, N-(4-{2-[3-(benzyloxy)-4-(trifluoromethyl)phenyl]-1,3-thiazol-4-yl}-3-chlorophenyl)-1,1,1-trifluoromethanesulfonamide], the cytotoxicity at 5 µM turned out to be 99%.

For `O=S(=O)(Nc1ccc(-c2csc(-c3cccc(CO)c3)n2)c(Cl)c1)C(F)(F)F` [Compound 83, N-(3-chloro-4-{2-[3-(hydroxymethyl)phenyl]-1,3-thiazol-4-yl}phenyl)-1,1,1-trifluoromethanesulfonamide], the cytotoxicity at 5 µM stood at 0%.

With `COc1ccc(-c2nc(-c3ccc(NS(=O)(=O)C(F)(F)F)cc3Cl)cs2)cc1OC` [Compound 79, N-{3-chloro-4-[2-(3,4-dimethoxyphenyl)-1,3-thiazol-4-yl]phenyl}-1,1,1-trifluoromethanesulfonamide], the cytotoxicity at 5 µM amounted to 74%.

For the compound `O=S(=O)(Nc1ccc(-c2csc(-c3ccnc(NC4CCCC4)c3)n2)c(Cl)c1)C(F)(F)F` [Compound 92, N-(3-chloro-4-{2-[2-(cyclopentylamino)pyridin-4-yl]-1,3-thiazol-4-yl}phenyl)-1,1,1-trifluoromethanesulfonamide], the cytotoxicity at 5 µM was found to be 94%.

In the case of `O=S(=O)(Nc1ccc(-c2csc(-c3cccc4[nH]ccc34)n2)c(Cl)c1)C(F)(F)F` [Compound 80, N-{3-chloro-4-[2-(1H-indol-4-yl)-1,3-thiazol-4-yl]phenyl}-1,1,1-trifluoromethanesulfonamide], the cytotoxicity at 5 µM was 86%.

With `O=S(=O)(Nc1ccc(-c2csc(-c3cccc4ccccc34)n2)c(Cl)c1)C(F)(F)F` [Compound 71, N-{3-chloro-4-[2-(naphthalen-1-yl)-1,3-thiazol-4-yl]phenyl}-1,1,1-trifluoromethanesulfonamide], the cytotoxicity at 5 µM turned out to be 97%.

On to `O=S(=O)(Nc1ccc(-c2csc(-c3cncc4ccccc34)n2)c(Cl)c1)C(F)(F)F` [Compound 75, N-{3-chloro-4-[2-(isoquinolin-4-yl)-1,3-thiazol-4-yl]phenyl}-1,1,1-trifluoromethanesulfonamide], for which the cytotoxicity at 5 µM came out at 88%.

For `O=S(=O)(Nc1ccc(-c2csc(-c3ccnc(CC4CCCCC4)c3)n2)c(Cl)c1)C(F)(F)F` [Compound 70, N-(3-chloro-4-{2-[2-(cyclohexylmethyl)pyridin-4-yl]-1,3-thiazol-4-yl}phenyl)-1,1,1-trifluoromethanesulfonamide], the cytotoxicity at 5 µM came to 100%.

For `O=S(=O)(Nc1ccc(-c2csc(-c3ccc4cc[nH]c4c3)n2)c(Cl)c1)C(F)(F)F` [Compound 72, N-{3-chloro-4-[2-(1H-indol-6-yl)-1,3-thiazol-4-yl]phenyl}-1,1,1-trifluoromethanesulfonamide], the cytotoxicity at 5 µM is 94%.

For the compound `O=S(=O)(Nc1ccc(-c2csc(-c3ccnc4ccccc34)n2)c(Cl)c1)C(F)(F)F` [Compound 94, N-[3-chloro-4-[2-(4-quinolyl)thiazol-4-yl]phenyl]-1,1,1-trifluoro-methanesulfonamide], the cytotoxicity at 5 µM was 84%.

Consider `Cc1cnccc1-c1nc(-c2ccc(NS(=O)(=O)C(F)(F)F)cc2Cl)cs1` [Compound 86, N-{3-chloro-4-[2-(3-methylpyridin-4-yl)-1,3-thiazol-4-yl]phenyl}-1,1,1-trifluoromethanesulfonamide], for which the cytotoxicity at 5 µM stood at 27%.

On to `O=S(=O)(Nc1ccc(-c2csc(-c3ccnc4[nH]ccc34)n2)c(Cl)c1)C(F)(F)F` [Compound 87, N-[3-chloro-4-(2-{1H-pyrrolo[2,3-b]pyridin-4-yl}-1,3-thiazol-4-yl)phenyl]-1,1,1-trifluoromethanesulfonamide], for which the cytotoxicity at 5 µM stood at 9%.

With `O=S(=O)(Nc1ccc(-c2csc(-c3ccccc3CO)n2)c(Cl)c1)C(F)(F)F` [Compound 84, N-(3-chloro-4-{2-[2-(hydroxymethyl)phenyl]-1,3-thiazol-4-yl}phenyl)-1,1,1-trifluoromethanesulfonamide], the cytotoxicity at 5 µM came out at 18%.

For `O=S(=O)(Nc1ccc(-c2csc(-c3ccnc(Cl)c3)n2)c(Cl)c1)C(F)(F)F` [Compound 95, N-(3-chloro-4-(2-(2-chloropyridin-4-yl)thiazol-4-yl)phenyl)-1,1,1-trifluoromethanesulfonamide], the cytotoxicity at 5 µM was 86%.

Regarding `CN1CCN(c2cc(-c3nc(-c4ccc(NS(=O)(=O)C(F)(F)F)cc4Cl)cs3)ccn2)CC1` [Compound 76, N-(3-chloro-4-{2-[2-(4-methylpiperazin-1-yl)pyridin-4-yl]-1,3-thiazol-4-yl}phenyl)-1,1,1-trifluoromethanesulfonamide], the cytotoxicity at 5 µM was determined as 3%.

Still in this assay, the particulars now being: Homo sapiens, HepG2, 72 h; 20 μM, 3 days, DMEM without FBS; read-out: Average Viability (% Inhibition, n = 3).
As to `O=C(c1ccc(-c2nc(-c3ccc(NS(=O)(=O)C(F)(F)F)cc3Cl)cs2)cc1)N1CCCCC1` [Compound 67, N-(3-chloro-4-{2-[4-(piperidine-1-carbonyl)phenyl]-1,3-thiazol-4-yl}phenyl)-1,1,1-trifluoromethanesulfonamide], the cytotoxicity at 20 µM came out at 20%.

Turning to `CCCc1cc(-c2nc(-c3ccc(NS(=O)(=O)C(F)(F)F)cc3Cl)cs2)ccn1` [Compound 4, N-(3-chloro-4-(2-(2-propylpyridin-4-yl)thiazol-4-yl)phenyl)-1,1,1-trifluoromethanesulfonamide], the cytotoxicity at 20 µM stood at 94.4%.

For `O=S(=O)(Nc1ccc(-c2csc(-c3ccnc(CCC(F)(F)F)c3)n2)c(Cl)c1)C(F)(F)F` [Compound 64, N-(3-chloro-4-{2-[2-(3,3,3-trifluoropropyl)pyridin-4-yl]-1,3-thiazol-4-yl}phenyl)-1,1,1-trifluoromethanesulfonamide], the cytotoxicity at 20 µM came to 100%.

In the case of `O=S(=O)(Nc1ccc(-c2csc(-c3ccnc(Cc4ccccc4)c3)n2)c(Cl)c1)C(F)(F)F` [Compound 60, N-{4-[2-(2-benzylpyridin-4-yl)-1,3-thiazol-4-yl]-3-chlorophenyl}-1,1,1-trifluoromethanesulfonamide], the cytotoxicity at 20 µM came out at 100%.

Turning to `O=S(=O)(Nc1ccc(-c2csc(-c3ccnc(NS(=O)(=O)C(F)(F)F)c3)n2)c(Cl)c1)C(F)(F)F` [Compound 66, N-{3-chloro-4-[2-(2-trifluoromethanesulfonamidopyridin-4-yl)-1,3-thiazol-4-yl]phenyl}-1,1,1-trifluoromethanesulfonamide], the cytotoxicity at 20 µM is 11%.

`COc1cc(-c2csc(-c3ccnc(C(C)(C)C)c3)n2)ccc1NS(=O)(=O)C(F)(F)F` [Compound 59, N-(4-(2-(2-tert-butylpyridin-4-yl)thiazol-4-yl)-2-methoxyphenyl)-1,1,1-trifluoromethanesulfonamide]: the cytotoxicity at 20 µM was determined as 99.8%.

With `CCCc1cc(-c2nc(-c3ccc(NS(=O)(=O)C(F)(F)F)c(OC)c3)cs2)ccn1` [Compound 58, 1,1,1-trifluoro-N-{2-methoxy-4-[2-(2-propylpyridin-4-yl)-1,3-thiazol-4-yl]phenyl}methanesulfonamide], the cytotoxicity at 20 µM turned out to be 67.9%.

On to `COc1cc(-c2csc(-c3ccnc(CC(C)C)c3)n2)ccc1NS(=O)(=O)C(F)(F)F` [Compound 57, 1,1,1-trifluoro-N-(2-methoxy-4-{2-[2-(2-methylpropyl)pyridin-4-yl]-1,3-thiazol-4-yl}phenyl) methanesulfonamide], for which the cytotoxicity at 20 µM amounted to 56.4%.

As to `Nc1cc(-c2nc(-c3ccc(NS(=O)(=O)C(F)(F)F)cc3Cl)cs2)ccn1` [Compound 61, N-{4-[2-(2-aminopyridin-4-yl)-1,3-thiazol-4-yl]-3-chlorophenyl}-1,1,1-trifluoromethanesulfonamide], the cytotoxicity at 20 µM stood at 43%.
